From patent US4603125A, “Substituted o-phenylenediamine acridine compounds having antitumor activity” (Development Finance Corporation of New Zealand, priority 1982, dated 1986)
Entries after “also recorded” stand apart in the source; their conditions may differ.

What was measured:
L1210 leukemia = details: earlier work, cited from earlier work
[1] = Rm from reversed phase partition chromatography (lipophilic-hydrophilic balance)
From the text: (§1) Rm=a measure of the compound's lipophilic-hydrophilic balance from reversed phase partition chromatography. Rm is linearly related to partition coefficients obtained in the 1-octanol/water system.

Lewis lung carcinoma = Lewis lung carcinoma in vivo (increase in lifespan); details: for ILS (percentage increase in lifespan), Lewis lung: i.v. tumour, days 1, 5 and 9, >40% statistically significant
From the text: LL. is the Lewis lung carcinoma.

tumour = experiment: antitumour activity in in vivo test systems (summary); details: compared to unsubstituted AMSA and m-AMSA (for compound 1)
From the text: The compounds of general formula (I) and particularly the examples listed in Tables I and II, have antitumor activity in in vivo test systems, as shown by the data of Tables III and IV.

P388 Leukemia = experiment: P388 leukemia in vivo (increase in lifespan); details: at OD; i.p. tumour, days 1, 5 and 9; >20% statistically significant
physchem = details: reversed phase partition chromatography
From the text: as §1

Compound | chromatographic logP [1] | ILS (percentage increase in lifespan), Lewis lung (Lewis lung carcinoma; at OD) | ILSmax (percentage increase in lifespan), P388 (P388 Leukemia) | other results
CS(=O)(=O)Nc1ccc(Nc2c3ccccc3nc3ccccc23)cc1 [AMSA, 4'-(9-acridinylamino) methanesulphonanilide] |  |  |  | antitumour activity on L1210 leukemia (L1210 leukemia): good antitumour activity
CNc1cc(NS(C)(=O)=O)ccc1Nc1c2ccccc2nc2ccccc12 [Compound 1] | 0.17 | 85% |  | potency and antitumour activity (tumour): increased potency and antitumour activity
CN(C)c1cc(NS(C)(=O)=O)ccc1Nc1c2ccccc2nc2ccccc12 [Compound 32] | 0.41 | > 250% | 212% | cures, Lewis lung (Lewis lung carcinoma; at OD): all cured
Cc1cccc2c(Nc3ccc(NS(C)(=O)=O)cc3N(C)C)c3ccccc3nc12 [Compound 34] |  |  |  | chromatographic logP (physchem): 0.36
COc1ccc2c(Nc3ccc(NS(C)(=O)=O)cc3N(C)C)c3cccc(C)c3nc2c1 [Compound 41] |  |  |  | chromatographic logP (physchem): 0.44
CNC(=O)c1cccc2c(Nc3ccc(NS(C)(=O)=O)cc3N(C)C)c3cccc(C)c3nc12 [Compound 44] |  |  |  | chromatographic logP (physchem): 0.4
CNc1cc(NC(=O)OC)ccc1Nc1c2ccc(Cl)cc2nc2c(C)cccc12 [Compound 56] | 0.67 | 100% |  | 
CNc1cc(NC(=O)OC)ccc1Nc1c2ccc(Br)cc2nc2c(C)cccc12 [Compound 57] | 0.69 | 82% | 97% | 
CNc1cc(NC(=O)OC)ccc1Nc1c2ccccc2nc2c(C)cccc12 [Compound 58] | 0.56 | 48% |  | 
CNc1cc(NC(=O)Oc2ccccc2)ccc1Nc1c2ccccc2nc2ccccc12 [Compound 66] | 0.76 |  | 71% | 
COc1cc(NS(C)(=O)=O)ccc1Nc1c2ccccc2nc2ccccc12 [m-AMSA, 4'-(9-acridinylamino)methanesulphon-m-anisidide, reference compound] |  | 38% | 78% | dose potency of 3'-methoxy derivative (L1210 leukemia; vs AMSA): increased dose potency; active, Lewis lung (Lewis lung carcinoma; at the stated dose (OD)): Y/N; Lewis lung activity in words (Lewis lung carcinoma; tumour implanted intravenously): minimal activity; also recorded: strictly inactive
